Key:
Test in all cases: Test F preemergence
large crabgrass = format: in vivo, Digitaria sanguinalis
From the text: (§1) Seeds of plant species selected from corn (Zea mays), soybean (Glycine max), velvetleaf (Abutilon theophrasti), lambsquarters (Chenopodium album), wild poinsettia (Euphorbia heterophylla), pigweed, palmer (palmer pigweed, Amaranthus palmeri), common waterhemp (Amaranthus rudis), surinam grass (Brachiaria decumbens), large crabgrass (Digitaria sanguinalis), crabgrass, Brazil (Brazilian crabgrass, Digitaria horizontalis), fall panicum (Panicum dichotomiflorum), giant foxtail (Setaria faberii), green foxtail (Setaria viridis), goosegrass (Eleusine indica), johnsongrass (Sorghum halepense), common ragweed (Ambrosia elation), barnyardgrass (Echinochloa crus-galli), southern sandbur (Cenchrus echinatus), arrowleaf sida (Sida rhombifolia), Italian ryegrass (Lolium multiflorum), dayflower, VA (Virginia (VA) dayflower, Commelina virginica), field bindweed (Convolvulus arvensis), cocklebur (common cocklebur, Xanthium strumarium), morningglory (Ipomoea coccinea), nightshade (eastern black nightshade, Solanum ptycanthum), kochia (Kochia scoparia), yellow nutsedge (Cyperus esculentus), and hairy beggarticks (Bidens pilosa), were planted into a silt loam soil and treated preemergence with test chemicals formulated in a non-phytotoxic solvent mixture which included a surfactant.
(§2) At the same time, plants from these crop and weed species and also horseweed (Canada horseweed, Conyza canadensis), smartweed (ladysthumb smartweed, Polygonum persicaria), waterhemp_RES1, (ALS & Triazine resistant common waterhemp, Amaranthus rudis), and waterhemp_RES2, (ALS & HPPD resistant common waterhemp, Amaranthus rudis) were treated with postemergence applications of test chemicals formulated in the same manner. Plants ranged in height from 2 to 18 cm for postemergence treatments (1- to 4-leaf stage). Treated plants and controls were maintained in a greenhouse for 14 to 21 days, after which time all species were compared to controls and visually evaluated. Plant response ratings, summarized in Table F, are based on a scale of 0 to 100 where 0 is no effect and 100 is complete control. A dash (-) response means no test result.

goosegrass = format: in vivo, Eleusine indica
From the text: as §1, §2

johnsongrass = format: in vivo, Sorghum halepense
From the text: as §1, §2

common ragweed = format: in vivo, Ambrosia elation
In short: (§3)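 Pre- and postemergence applications used the same formulation, a non-phytotoxic solvent mixture including surfactant. Soil-applied treatment followed sowing into silt loam, whereas foliar treatment hit plants at the 1- to 4-leaf stage. Scores (0 = no effect, 100 = complete control) were assigned visually after 14–21 days.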

arrowleaf sida = format: in vivo, Sida rhombifolia
In short: as §3

field bindweed = format: in vivo, Convolvulus arvensis
From the text: as §1, §2

[1] = Preemergence, 62 g ai/ha, scale 0 to 100
[2] = Preemergence, 125 g ai/ha, scale 0 to 100
[3] = preemergence, 8 g ai/ha, scale 0 to 100, 100 is complete control
[4] = preemergence, 16 g ai/ha, scale 0 to 100, 100 is complete control
[5] = preemergence, scale 0 to 100, 100 is complete control
[6] = Preemergence, 16 g ai/ha, scale 0 to 100
[7] = Preemergence, 250 g ai/ha, scale 0 to 100

SMILES	Plant response rating, Large Crabgrass (large crabgrass; [1])	Plant response rating, Large Crabgrass (large crabgrass; [2])	Plant response rating, Large Crabgrass (large crabgrass; [4])	Plant response rating, Large Crabgrass (large crabgrass; [5])	Plant response rating, Goosegrass (goosegrass; [1])	Plant response rating, Goosegrass (goosegrass; [2])	Plant response rating, Goosegrass (goosegrass; [4])	Plant response rating, Johnsongrass (johnsongrass; [1])	Plant response rating, Johnsongrass (johnsongrass; [2])	Plant response rating, Johnsongrass (johnsongrass; [4])	Plant response rating, Common Ragweed (common ragweed; [6])	Plant response rating, Common Ragweed (common ragweed; [1])	Plant response rating, Common Ragweed (common ragweed; [2])	Plant response rating, Common Ragweed (common ragweed; [4])	Plant response rating, Arrowleaf Sida (arrowleaf sida; [6])	Plant response rating, Arrowleaf Sida (arrowleaf sida; [1])	Plant response rating, Arrowleaf Sida (arrowleaf sida; [2])	Plant response rating, Arrowleaf Sida (arrowleaf sida; [4])	Plant response rating, Field Bindweed (field bindweed; [6])	Plant response rating, Field Bindweed (field bindweed; [1])	further results
CCNC(=O)c1cc(CC)n(Cc2ccnc(C(F)(F)F)c2)n1 [Compound 196]	100	100	35	95	70	95	0	35	80	0	65	70	90	30	0	5	70	0	20	75	Plant response rating, Large Crabgrass (large crabgrass; [3]): 35; Plant response rating, Goosegrass (goosegrass; [3]): 0; Plant response rating, Johnsongrass (johnsongrass; [3]): 0; Plant response rating, Common Ragweed (common ragweed; [3]): 0; Plant response rating, Arrowleaf Sida (arrowleaf sida; [3]): 0; Plant response rating, Field Bindweed (field bindweed; [2]): 85; Plant response rating, Field Bindweed (field bindweed; [3]): 5; Plant response rating, Field Bindweed (field bindweed; [4]): 10
Cc1cc(C(=O)NC(C)C)nn1Cc1ccnc(C(F)(F)F)c1 [Compound 197]	35	100	0	35	5	70	0	0	20	0	35	40	80	0	5	5	10	5	35	50	Plant response rating, Large Crabgrass (large crabgrass; [3]): 0; Plant response rating, Goosegrass (goosegrass; [3]): 0; Plant response rating, Johnsongrass (johnsongrass; [3]): 0; Plant response rating, Common Ragweed (common ragweed; [3]): 0; Plant response rating, Arrowleaf Sida (arrowleaf sida; [3]): 0; Plant response rating, Field Bindweed (field bindweed; [2]): 80; Plant response rating, Field Bindweed (field bindweed; [3]): 10; Plant response rating, Field Bindweed (field bindweed; [4]): 15
CCc1cc(C(=O)NC2CC2)nn1Cc1ccnc(OCC(F)(F)F)c1 [Compound 200]	20	100	0	35	35	65	0	20	70	0	0	0	5	0	0	5	35	0	0	0	Plant response rating, Large Crabgrass (large crabgrass; [7]): 100; Plant response rating, Goosegrass (goosegrass; [7]): 90; Plant response rating, Johnsongrass (johnsongrass; [7]): 75; Plant response rating, Common Ragweed (common ragweed; [7]): 30; Plant response rating, Arrowleaf Sida (arrowleaf sida; [7]): 80; Plant response rating, Field Bindweed (field bindweed; [7]): 60; Plant response rating, Field Bindweed (field bindweed; [2]): 50; Plant response rating, Field Bindweed (field bindweed; [4]): 0
